Our source for the Activity and IC50 values is ChEMBL document CHEMBL2396624, “Rearranged limonoids and chromones from Harrisonia perforata and their anti-inflammatory activity” (Bioorg Med Chem Lett, 2013).

Molecules are shown by their SMILES.

The subject of the first series is J774.A1. The experiment in a line: Antiinflammatory activity in mouse J774A1 cells assessed as reduction of LPS-induced iNOS expression after 6 to 12 hrs by Western blot analysis. The class given is functional, cell-based.
Conditions: not given
Take `COC(=O)/C=C\[C@]1(C)[C@H]2CC[C@@]3(C)[C@H](C4=CC(O)OC4=O)OC(=O)[C@H]4O[C@]43[C@]2(C)[C@]2(O)OC(C)(C)C(=O)[C@@]21O` (some centres not stated) [HARPERFOLIDE]: the Activity entry was “Dose-dependent effect”.

Tested on in a further series: not listed separately
The series is described as follows: Cytotoxicity against mouse J774A1 cells assessed as cell viability at 2.5 to 20 uM after 20 hrs by MTT assay. The series is classed as cell-based. Particulars: j774.a1, 20 h.
For `COC(=O)/C=C\[C@]1(C)[C@H]2CC[C@@]3(C)[C@H](C4=CC(O)OC4=O)OC(=O)[C@H]4O[C@]43[C@]2(C)[C@]2(O)OC(C)(C)C(=O)[C@@]21O` (some centres not stated) [HARPERFOLIDE], the Activity result is “Non-toxic”.

Tested on in another series: not listed separately
The series is described as follows: Antiinflammatory activity in mouse J774A1 cells assessed as reduction of LPS-induced nitric oxide production treated 2 hrs before LPS addition measured after 20 hrs by using Griess reagent. The class given is functional, cell-based. Particulars: J774.A1.
The term IC50 denotes the point on the concentration scale where inhibition reaches its midpoint. With `COc1cc2oc(C)cc(=O)c2c(O)c1CC=C(C)C`, the IC50 was 56.4 µM.
As to `COc1cc2c(c3oc(C)cc(=O)c13)C=CC(C)(C)O2`, the IC50 was 66.4 µM.
As to `COC(=O)c1cc(=O)c2c(O)cc3c(c2o1)C=CC(C)(C)O3`, the IC50 was found to be 55 µM.
With `CC(=O)c1c(O)c(CC=C(C)C)c(O)c2c1O[C@](C)(CCC=C(C)C)[C@H](OO)C2`, the IC50 stood at 31 µM.
Turning to `C[C@H]1c2ccoc2C[C@H]2[C@H]1CC[C@@H]1[C@]2(C)CCC[C@]1(C)C(=O)O` [(+)-VOUACAPENIC ACID], the IC50 turned out to be 132 µM.
Regarding `COc1cc(O)c2c(=O)cc(C)oc2c1CCC(C)(C)O` [HARPERAMONE], the IC50 was found to be 49.6 µM.
In the case of `COC(=O)/C=C\[C@]1(C)[C@H]2CC[C@@]3(C)[C@H](C4=CC(O)OC4=O)OC(=O)[C@H]4O[C@]43[C@]2(C)[C@]2(O)OC(C)(C)C(=O)[C@@]21O` (some centres not stated) [HARPERFOLIDE], the IC50 was determined as 6.51 µM.
For `COC(=O)/C=C\[C@]1(C)[C@H]2CC[C@@]3(C)[C@H](c4ccoc4)OC(=O)[C@H]4O[C@]43[C@]2(C)[C@]2(O)OC(C)(C)C(=O)[C@@]21O` [HARRISONIN], the IC50 was 135 µM.
Turning to `COc1ccc2c(c1)c(CC(=O)O)c(C)n2C(=O)c1ccc(Cl)cc1` [INDOMETHACIN], the IC50 was determined as 28.4 µM.
Still for that read-out and setting: for `CC1(C)OC(=O)C=C[C@]2(C)[C@H]3CC[C@@]4(C)[C@H](c5ccoc5)OC(=O)[C@H]5O[C@]54[C@]3(C)C(=O)C[C@@H]12` [OBACUNONE] the value was 83.6 µM.
